Reference: publication PMC11995724, “Antibiotic target discovery by integrated phenotypic and activity-based profiling of electrophilic fragments” (Cell chemical biology, 2025)
Where a name gives a salt, the structure may show the parent alone.

Assay: in vitro
Conditions: human, hek293t cells

Cc1noc(C)c1CN(C(=O)CCl)C1CC1 [7-B05, 2-chloro-N-cyclopropyl-N-[(3,5-dimethyl-1,2-oxazol-4-yl)methyl]acetamide]
viability at 48 h, 25 µM: 0.0855%

C=CC(=O)N1CCCCC1c1nc2ccccc2n1C (stereo not shown) [3-F04, 1-[2-(1-methyl-1H-1,3-benzodiazol-2-yl)piperidin-1-yl]prop-2-en-1-one]
viability at 48 h, 25 µM: 84.2%

C=CC(=O)NCCn1cc(C2CCOC2)cn1 (stereo not shown) [2-L09, N-{2-[4-(oxolan-3-yl)-1H-pyrazol-1-yl]ethyl}prop-2-enamide]
viability at 48 h, 25 µM: 53.7%

CC(Cl)C(=O)NCc1ncn(Cc2cccc(F)c2)n1 (stereo not shown) [7-K03, 2-chloro-N-({1-[(3-fluorophenyl)methyl]-1H-1,2,4-triazol-3-yl}methyl)propanamide]
viability at 48 h, 25 µM: 111%

Cc1ccc(-n2c(C)cc(C(=O)CCl)c2C)cc1C [10-B14, 2-chloro-1-[1-(3,4-dimethylphenyl)-2,5-dimethyl-1H-pyrrol-3-yl]ethan-1-one]
viability at 48 h, 25 µM: 0.754%

CC(Cl)C(=O)N1CCc2ncsc2C1 (stereo not shown) [7-C06, 2-chloro-1-{4H,5H,6H,7H-[1,3]thiazolo[5,4-c]pyridin-5-yl}propan-1-one]
viability at 48 h, 25 µM: 92.6%

CCCCNC(=O)C(C#N)=Cc1ccc(C)s1 [9-J06, N-butyl-2-cyano-3-(5-methylthiophen-2-yl)prop-2-enamide]
viability at 48 h, 25 µM: 94.4%

Cc1cc(C=C(C#N)C(=O)Nc2nccs2)cc(C)c1O [9-D13, 2-cyano-3-(4-hydroxy-3,5-dimethylphenyl)-N-(1,3-thiazol-2-yl)prop-2-enamide]
viability at 48 h, 25 µM: 106%

CC(=O)N1CCC(N(Cc2cncs2)C(=O)C(C)Cl)CC1 (stereo not shown) [5-H21, N-(1-acetylpiperidin-4-yl)-2-chloro-N-[(1,3-thiazol-5-yl)methyl]propanamide]
viability at 48 h, 25 µM: 119%

C=CC(=O)N1CCCCC(S(C)(=O)=O)C1 (stereo not shown) [2-E17, 1-(3-methanesulfonylazepan-1-yl)prop-2-en-1-one]
viability at 48 h, 25 µM: 110%

CCCNC(=O)C(C#N)=Cc1ccc(-n2cncn2)c(C)c1 [9-C05, 2-cyano-3-[3-methyl-4-(1H-1,2,4-triazol-1-yl)phenyl]-N-propylprop-2-enamide]
viability at 48 h, 25 µM: 96%

C=CC(=O)N1CCC(C(=O)N(C)Cc2ccon2)CC1 [2-I14, N-methyl-N-[(1,2-oxazol-3-yl)methyl]-1-(prop-2-enoyl)piperidine-4-carboxamide]
viability at 48 h, 25 µM: 90.3%

O=C1C=CC(=O)N1c1cccc([N+](=O)[O-])c1 [10-P15, 1-(3-nitrophenyl)-2,5-dihydro-1H-pyrrole-2,5-dione]
viability at 48 h, 25 µM: 92.8%

O=C(CCl)NCc1ccccc1OC(F)(F)F [4-L21, 2-chloro-N-{[2-(trifluoromethoxy)phenyl]methyl}acetamide]
viability at 48 h, 25 µM: 0.623%

CC(Cl)C(=O)NC(C)C(=O)N1CCc2ccccc21 (stereo not shown) [7-M21, 2-chloro-N-[1-(2,3-dihydro-1H-indol-1-yl)-1-oxopropan-2-yl]propanamide]
viability at 48 h, 25 µM: 84.1%

CC(Cl)C(=O)NC(c1ccc(F)cc1)c1cnn(C)c1 (stereo not shown) [7-C19, 2-chloro-N-[(4-fluorophenyl)(1-methyl-1H-pyrazol-4-yl)methyl]propanamide]
viability at 48 h, 25 µM: 93.1%

C=CC(=O)Nc1ncc(C2CCCC(C)C2)s1 (stereo not shown) [1-J16, N-[5-(3-methylcyclohexyl)-1,3-thiazol-2-yl]prop-2-enamide]
viability at 48 h, 25 µM: 0.801%

CC(=O)N(c1ccccc1)c1nc(C=C(C#N)C(=O)NC2CC2)cs1 [9-A12, 2-cyano-N-cyclopropyl-3-[2-(N-phenylacetamido)-1,3-thiazol-4-yl]prop-2-enamide]
viability at 48 h, 25 µM: 123%

CC(C)NC(=O)C(C#N)=Cc1ccc2ccccc2c1 [9-C13, 2-cyano-3-(naphthalen-2-yl)-N-(propan-2-yl)prop-2-enamide]
viability at 48 h, 25 µM: 77.9%

C=CC(=O)N1CCC(NC(C)=O)C1 (stereo not shown) [1-B19, N-[1-(prop-2-enoyl)pyrrolidin-3-yl]acetamide]
viability at 48 h, 25 µM: 114%

O=C(CCl)NC1CN(C(=O)C2CC2)C1 [6-P22, 2-chloro-N-(1-cyclopropanecarbonylazetidin-3-yl)acetamide]
viability at 48 h, 25 µM: 112%

Cc1ccc(Cl)c(NC(=O)CCl)c1Cl [4-D10, 2-chloro-N-(2,6-dichloro-3-methylphenyl)acetamide]
viability at 48 h, 25 µM: 1.7%

C=CC(=O)N1CCCC1c1nc(N(C)C)no1 (stereo not shown) [2-C21, 1-{2-[3-(dimethylamino)-1,2,4-oxadiazol-5-yl]pyrrolidin-1-yl}prop-2-en-1-one]
viability at 48 h, 25 µM: 191%

CC(Cl)C(=O)N1CCCCC1c1nc(-c2ncccn2)no1 (stereo not shown) [7-D15, 2-chloro-1-{2-[3-(pyrimidin-2-yl)-1,2,4-oxadiazol-5-yl]piperidin-1-yl}propan-1-one]
viability at 48 h, 25 µM: 85.8%

C=CCNC(=O)C(C#N)=Cc1ccc2c(c1)OCCO2 [9-L06, 2-cyano-3-(2,3-dihydro-1,4-benzodioxin-6-yl)-N-(prop-2-en-1-yl)prop-2-enamide]
viability at 48 h, 25 µM: 86.7%

N#CC(=Cc1cccc(-c2ccncc2)c1)C(=O)NCc1ccco1 [9-B06, 2-cyano-N-[(furan-2-yl)methyl]-3-[3-(pyridin-4-yl)phenyl]prop-2-enamide]
viability at 48 h, 25 µM: 68.2%

C=CC(=O)NCc1cc(C(F)(F)F)on1 [3-F20, N-{[5-(trifluoromethyl)-1,2-oxazol-3-yl]methyl}prop-2-enamide]
viability at 48 h, 25 µM: 84.8%

CC(NC(=O)c1ccccc1NC(=O)CCl)c1ccccc1 (stereo not shown) [4-B07, 2-(2-chloroacetamido)-N-(1-phenylethyl)benzamide]
viability at 48 h, 25 µM: 0.478%

CC(Cl)C(=O)NCCn1cccc1 (stereo not shown) [7-G21, 2-chloro-N-[2-(1H-pyrrol-1-yl)ethyl]propanamide]
viability at 48 h, 25 µM: 87.8%

CC(Cl)C(=O)NC1CC(C)N(c2ccccc2)C1 (stereo not shown) [6-L15, 2-chloro-N-(5-methyl-1-phenylpyrrolidin-3-yl)propanamide]
viability at 48 h, 25 µM: 99.3%

C=CC(=O)N1CCC(C(=O)N2CCCCCC2c2ccco2)CC1 (stereo not shown) [2-N20, 1-{4-[2-(furan-2-yl)azepane-1-carbonyl]piperidin-1-yl}prop-2-en-1-one]
viability at 48 h, 25 µM: 80.3%

C=CC(=O)N1CCC(C(=O)NCc2nnc(C(C)C)n2C)CC1 [3-C16, N-{[4-methyl-5-(propan-2-yl)-4H-1,2,4-triazol-3-yl]methyl}-1-(prop-2-enoyl)piperidine-4-carboxamide]
viability at 48 h, 25 µM: 78.5%

CC(Cl)C(=O)NC(C)c1nnc(-c2cccc(F)c2)s1 (stereo not shown) [5-N15, 2-chloro-N-{1-[5-(3-fluorophenyl)-1,3,4-thiadiazol-2-yl]ethyl}propanamide]
viability at 48 h, 25 µM: 98.1%

CC(Cl)C(=O)NCC1CN(c2ccc(Cl)cc2)CCO1 (stereo not shown) [6-F07, 2-chloro-N-{[4-(4-chlorophenyl)morpholin-2-yl]methyl}propanamide]
viability at 48 h, 25 µM: 101%

NC(=O)COc1ccc(C(=O)CCl)cc1 [10-M07, 2-[4-(2-chloroacetyl)phenoxy]acetamide]
viability at 48 h, 25 µM: 38.6%

COc1ccccc1NC(=O)C(C#N)=Cc1cc(C)c(C)cc1C [9-A10, 2-cyano-N-(2-methoxyphenyl)-3-(2,4,5-trimethylphenyl)prop-2-enamide]
viability at 48 h, 25 µM: 115%

C=CC(=O)NCCn1nc(C)cc1C [3-M13, N-[2-(3,5-dimethyl-1H-pyrazol-1-yl)ethyl]prop-2-enamide]
viability at 48 h, 25 µM: 56.9%

Cc1cc(N2CCCC(NC(=O)C(C)Cl)C2=O)n(C)n1 (stereo not shown) [7-B13, 2-chloro-N-[1-(1,3-dimethyl-1H-pyrazol-5-yl)-2-oxopiperidin-3-yl]propanamide]
viability at 48 h, 25 µM: 95.8%

C=CC(=O)NCCC(=O)N1CCSC(C)(C)C1 [3-G18, N-[3-(2,2-dimethylthiomorpholin-4-yl)-3-oxopropyl]prop-2-enamide]
viability at 48 h, 25 µM: 101%

O=C(CCl)NC(c1ccccc1)c1ccccc1 [6-M12, 2-chloro-N-(diphenylmethyl)acetamide]
viability at 48 h, 25 µM: 0.81%

Cc1cc(C)cc(OCCN(C)C(=O)CCl)c1 [6-F03, 2-chloro-N-[2-(3,5-dimethylphenoxy)ethyl]-N-methylacetamide]
viability at 48 h, 25 µM: 0.538%

Cc1ccc(N2C(=O)C=CC2=O)c(C)c1 [10-N07, 1-(2,4-dimethylphenyl)-2,5-dihydro-1H-pyrrole-2,5-dione]
viability at 48 h, 25 µM: 102%

CCCn1c(N)c(C(=O)CCl)c(=O)n(C)c1=O [10-H12, 6-amino-5-(2-chloroacetyl)-3-methyl-1-propyl-1,2,3,4-tetrahydropyrimidine-2,4-dione]
viability at 48 h, 25 µM: 86.3%

O=C(CCl)N[C@H]1CCN(S(=O)(=O)c2ccccc2)C1 [7-P16, N-[(3S)-1-(benzenesulfonyl)pyrrolidin-3-yl]-2-chloroacetamide]
viability at 48 h, 25 µM: 0.479%

N#CC(=Cc1ccc(N2CCCCC2)cc1)C(=O)Nc1nccs1 [8-C04, 2-cyano-3-[4-(piperidin-1-yl)phenyl]-N-(1,3-thiazol-2-yl)prop-2-enamide]
viability at 48 h, 25 µM: 97.1%

CC1CCCN(Cc2ccc(CNC(=O)CCl)cc2)C1 (stereo not shown) [6-K04, 2-chloro-N-({4-[(3-methylpiperidin-1-yl)methyl]phenyl}methyl)acetamide hydrochloride]
viability at 48 h, 25 µM: 56.4%

O=C(CCl)N[C@H](CO)Cc1ccccc1 [6-G20, 2-chloro-N-[(2S)-1-hydroxy-3-phenylpropan-2-yl]acetamide]
viability at 48 h, 25 µM: 81.9%

CC(Cl)C(=O)N1CCN(CC(F)(F)C(F)F)CC1 (stereo not shown) [7-J07, 2-chloro-1-[4-(2,2,3,3-tetrafluoropropyl)piperazin-1-yl]propan-1-one]
viability at 48 h, 25 µM: 96.1%

O=C(CCl)N1N=C(C=Cc2ccco2)CC1c1ccco1 (stereo not shown) [4-M22, 2-chloro-1-[5-(furan-2-yl)-3-[2-(furan-2-yl)ethenyl]-4,5-dihydro-1H-pyrazol-1-yl]ethan-1-one]
viability at 48 h, 25 µM: -0.145%

C=CC(=O)NCC1OCCc2sc(F)cc21 (stereo not shown) [2-P09, N-({2-fluoro-4H,6H,7H-thieno[3,2-c]pyran-4-yl}methyl)prop-2-enamide]
viability at 48 h, 25 µM: 72.3%

CC(Cl)C(=O)NC1(C(=O)N(C)C)CC(F)(F)C1 (stereo not shown) [7-K20, 1-(2-chloropropanamido)-3,3-difluoro-N,N-dimethylcyclobutane-1-carboxamide]
viability at 48 h, 25 µM: 83.7%

C=CC(=O)N(Cc1c2c(nn1C)CCOC2)c1cc(C)cc(C)c1 [2-A07, N-(3,5-dimethylphenyl)-N-({2-methyl-2H,4H,6H,7H-pyrano[4,3-c]pyrazol-3-yl}methyl)prop-2-enamide]
viability at 48 h, 25 µM: 57.4%
